Data reported in patent US10208071B2, “Use of agonists of formyl peptide receptor 2 for treating ocular inflammatory diseases” (Allergan, Inc., priority 2013, dated 2019).
Where two headings read alike, the source gives them in different places.

Molecular target: FPR2 (Homo sapiens (Human), UniProt P25090)
Assay: FLIPR Ca+2 response, HEK-Gα16 cells stably expressing the human FPR2 receptor (Table 4)
Format: cell-based
Settings: for FPR2 (efficacy): efficacy in parentheses
Procedure, shortened: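 HEK-Gα16 cells stably expressing human FPR2, loaded with 2 μM Fluo-4 in HBSS/20 mM HEPES for 40 min at 37° C., then washed. Ligands added in HBSS/Hepes and Ca+2 responses recorded on FLIPR in relative fluorescence units.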

Sequence of FPR2 (P25090 whole entry): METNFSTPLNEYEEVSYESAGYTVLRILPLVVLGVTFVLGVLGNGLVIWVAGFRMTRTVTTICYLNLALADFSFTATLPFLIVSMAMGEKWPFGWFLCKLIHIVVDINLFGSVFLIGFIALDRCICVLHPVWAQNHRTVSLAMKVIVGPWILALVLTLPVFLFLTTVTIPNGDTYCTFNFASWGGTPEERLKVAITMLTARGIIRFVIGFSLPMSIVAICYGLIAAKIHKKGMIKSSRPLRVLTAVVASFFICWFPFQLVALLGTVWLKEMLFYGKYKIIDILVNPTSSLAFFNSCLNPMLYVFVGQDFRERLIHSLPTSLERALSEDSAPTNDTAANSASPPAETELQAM

FPR2 (efficacy) | EC50 [nM] | EC50 (unit inferred) [nM] | SMILES
nM (0.91) |  |  | NC(=O)C1C(C(=O)Nc2ccc(Br)cc2)C2C=CC1C21CC1 (stereo not shown) [Compound 26, N-(4-bromophenyl) spiro[bicyclo[2.2.1]heptane-7,1′-cyclopropane]-5-ene-2,3-dicarboxamide]
nM (0.91) | 2 |  | CC(C)C[C@H](NC(=O)Nc1ccc(Br)cc1)C(=O)NCS(=O)(=O)O [Compound 127, {[(2S)-2-{[(4-bromophenyl)carbamoyl]amino}-4-methylpentanoyl]amino} methanesulfonic acid]
nM (0.91) | 6.3 |  | CSCC[C@H](NC(=O)Nc1ccc(Br)cc1)C(=O)NCC(=O)O [Compound 144, {[(2S)-2-{[(4-bromophenyl)carbamoyl]amino}-4-(methylsulfanyl)butanoyl]amino} acetic acid]
nM (1.0) | 1.2 |  | CCC[C@H](NC(=O)Nc1ccc(Br)cc1)C(=O)NCP(=O)(OC(C)C)OC(C)C [Compound 125, dipropan-2-yl ({[(2S)-2-{[(4-bromophenyl)carbamoyl]amino}pentanoyl]amino}methyl) phosphonate]
nM (0.96) |  |  | CCC[C@H](NC(=O)Nc1ccc(Br)cc1F)C(=O)NCC(N)=O [Compound 81, (2S)-N-(2-amino-2-oxoethyl)-2-{[(4-bromo-2-fluorophenyl)carbamoyl]amino} pentanamide]
nM (1.0) |  |  | CC(C)C[C@H](NC(=O)Nc1ccc(C(F)(F)F)cc1)C(=O)NCC(=O)O [Compound 124, {[(2S)-4-methyl-2-({[4-(trifluoromethyl)phenyl]carbamoyl}amino)pentanoyl]amino}acetic acid]
nM (0.95) | 12.1 |  | CC(C)C[C@H](NC(=O)Nc1ccc(Br)cc1F)C(=O)N[C@@H](C)C(=O)O [Compound 87, (2S)-2-{[(2S)-2-{[(4-bromo-2-fluorophenyl)carbamoyl]amino}-4-methylpentanoyl]amino} propanoic acid]
nM (0.91) |  |  | NC(=O)C1C(C(=O)Nc2ccc(Br)cc2)C2CCC1C21CC1 (single isomer, unassigned; (-)) [Compound 45, (−) N-(4-bromophenyl)spiro[bicyclo[2.2.1]heptane-7,1′-cyclopropane]-2,3-dicarboxamide]
nM (1.0) | 3 |  | CSc1ccc(NC(=O)N[C@@H](CC(C)C)C(=O)NCC(=O)O)cc1 [Compound 130, {[(2S)-4-methyl-2-({[4-(methylsulfanyl)phenyl]carbamoyl}amino)pentanoyl]amino} acetic acid]
nM (0.98) | 19.4 |  | CC(C)CC(C)(NC(=O)Nc1ccc(Br)cc1)C(=O)O (stereo not shown) [Compound 110, 2-{[(4-bromophenyl)carbamoyl]amino}-2,4-dimethylpentanoic acid]
nM (1.0) | 11.6 |  | CC(C)C[C@H](NC(=O)Nc1ccc(Br)cc1)C(=O)N[C@@H](C)C(=O)O [Compound 90, (2S)-2-{[(2S)-2-{[(4-bromophenyl)carbamoyl]amino}-4-methylpentanoyl]amino} propanoic acid]
nM (0.99) | 1.9 |  | CC(C)C[C@H](NC(=O)Nc1ccc(C(F)(F)F)cc1)C(=O)NCS(=O)(=O)O [Compound 237, {[(2S)-4-methyl-2-({[4-(trifluoromethyl)phenyl]carbamoyl}amino)pentanoyl]amino} methanesulfonic acid]
nM (0.97) | 4 |  | O=C(O)C1C(C(=O)Nc2ccc(Br)cc2)C2C=CC1C21CC1 (stereo not shown) [Compound 12, 3-[(4-bromophenyl)carbamoyl] spiro[bicyclo[2.2.1]heptane-7,1′-cyclopropane]-5-ene-2-carboxylic acid]
nM (0.83) |  |  | CC1(C)C2CCC1C(C(=O)Nc1ccc(Br)cc1)C2C(N)=O (stereo not shown) [Compound 34, N-(4-bromophenyl)-7,7-dimethylbicyclo[2.2.1]heptane-2,3-dicarboxamide]
(0.77) |  | 5.95 | CC(C)C[C@H](NC(=O)Nc1ccc(Br)cc1)C(=O)O [Compound 9, (2S)-2-{[(4-bromophenyl)carbamoyl]amino}-4-methylpentanoic acid]
nM (0.92) | 13.8 |  | CC(C)C1(CC(=O)NC(CO)CO)NC(=O)N(NC(=O)Nc2ccc(Br)cc2)C1=O (stereo not shown) [Compound 142, 2-[1-{[(4-bromophenyl)carbamoyl]amino}-2,5-dioxo-4-(propan-2-yl)imidazolidin-4-yl]-N-(1,3-dihydroxypropan-2-yl)acetamide]
nM (0.98) | 1.4 |  | O=C(O)CNC(=O)C(Cc1c[nH]c2ccccc12)NC(=O)Nc1ccc(Br)cc1 (stereo not shown) [Compound 150, {[2-{[(4-bromophenyl)carbamoyl]amino}-3-(1H-indol-3-yl)propanoyl]amino}acetic acid]

Second part, the molecule before the results:

SMILES | FPR2 (efficacy) | EC50 [nM] | EC50 (unit inferred) [nM]
CCC1(CCc2ccccc2C(=O)O)NC(=O)N(NC(=O)Nc2ccc(Br)cc2)C1=O (stereo not shown) [Compound 143, 2-[2-(1-{[(4-bromophenyl)carbamoyl]amino}-4-ethyl-2,5-dioxoimidazolidin-4-yl)ethyl]benzoic acid] | nM (1.0) | 17.2 | 
CC(C)C[C@H](NC(=O)Nc1ccc(Br)cc1)C(=O)NCC(=O)O [Compound 8, {[(2S)-2-{[(4-bromophenyl)carbamoyl]amino}-4-methylpentanoyl]amino}acetic acid] | (0.78) |  | 
CS(=O)(=O)c1ccc(NC(=O)Nc2ccc3c(c2)C(=O)N(CCCN)C(c2ccc(C#N)cc2)C3)cc1 (stereo not shown) [Compound 18, 1-[2-(3-aminopropyl)-3-(4-cyanophenyl)-1-oxo-1,2,3,4-tetrahydroisoquinolin-7-yl]-3-[4-(methylsulfonyl)phenyl]urea] | nM (0.86) |  | 
CC1(CCc2ccc(O)c(F)c2)NC(=O)N(NC(=O)Nc2ccc(Br)cc2F)C1=O (stereo not shown) [Compound 98, 1-(4-bromo-2-fluorophenyl)-3-{4-[2-(3-fluoro-4-hydroxyphenyl)ethyl]-4-methyl-2,5-dioxoimidazolidin-1-yl}urea] | nM (0.91) |  | 
C[S+]([O-])c1ccc(NC(=O)Nc2ccc3c(c2)C(=O)N(CCCN)[C@@H](c2ccc(C#N)cc2)C3)cc1 (stereo partly drawn) [Compound 41, (+) 1-[(3R)-2-(3-aminopropyl)-3-(4-cyanophenyl)-1-oxo-1,2,3,4-tetrahydroisoquinolin-7-yl]-3-[4-(methylsulfinyl)phenyl]urea] | nM (0.94) |  | 
CCOP(=O)(CNC(=O)[C@H](CC(C)C)NC(=O)Nc1ccc(C(F)(F)F)cc1)OCC [Compound 134, diethyl ({[(2S)-4-methyl-2-({[4-(trifluoromethyl)phenyl]carbamoyl}amino)pentanoyl]amino}methyl)phosphonate] | nM (0.97) | 5.5 | 
CC(=O)c1ccc(NC(=O)Nc2ccc3c(c2)C(=O)N(CCc2c[nH]cn2)C(c2ccc(C#N)cc2)C3)cc1 (stereo not shown) [Compound 13, 1-(4-acetylphenyl)-3-{3-(4-cyanophenyl)-2-[2-(1H-imidazol-4-yl)ethyl]-1-oxo-1,2,3,4-tetrahydroisoquinolin-7-yl}urea] | nM (0.80) |  | 
CCOP(=O)(CNC(=O)[C@H](CC(C)C)NC(=O)Nc1ccc(Br)cc1)OCC [Compound 112, diethyl ({[(2S)-2-{[(4-bromophenyl)carbamoyl]amino}-4-methylpentanoyl]amino}methyl)phosphonate] |  | 0.48 | 
CCC1(CC)NC(=O)N(NC(=O)Nc2ccc(Br)cc2F)C1=O [Compound 50, 1-(4-bromo-2-fluorophenyl)-3-(4,4-diethyl-2,5-dioxoimidazolidin-1-yl)urea] | nM (1.0) | 15.7 | 
C[S+]([O-])c1ccc(NC(=O)Nc2ccc3c(c2)C(=O)N(CCc2c[nH]cn2)C(c2ccc(F)cn2)C3)cc1 (stereo not shown) [Compound 24, 1-{3-(5-fluoropyridin-2-yl)-2-[2-(1H-imidazol-4-yl)ethyl]-1-oxo-1,2,3,4-tetrahydroisoquinolin-7-yl}-3-[4-(methylsulfinyl)phenyl]urea] | nM (0.93) |  | 
CCC1(CCc2ccccc2)NC(=O)N(NC(=O)Nc2ccc(Br)cc2F)C1=O (stereo not shown) [Compound 69, 1-(4-bromo-2-fluorophenyl)-3-[4-ethyl-2,5-dioxo-4-(2-phenylethyl)imidazolidin-1-yl]urea] | nM (0.91) | 13.4 | 
CS(=O)(=O)c1ccc(NC(=O)Nc2ccc3c(c2)C(=O)N(CCc2c[nH]cn2)C(c2ccc(F)cn2)C3)cc1 (stereo not shown) [Compound 25, 1-{3-(5-fluoropyridin-2-yl)-2-[2-(1H-imidazol-4-yl)ethyl]-1-oxo-1,2,3,4-tetrahydroisoquinolin-7-yl}-3-[4-(methylsulfonyl)phenyl]urea] | nM (1.0) |  | 
CCOP(=O)(O)CNC(=O)[C@H](Cc1ccccc1)NC(=O)Nc1ccc(Br)cc1 [Compound 126, ethyl hydrogen ({[(2S)-2-{[(4-bromophenyl)carbamoyl]amino}-3-phenylpropanoyl]amino}methyl)phosphonate] | nM (1.0) |  | 
NC(=O)C1C(C(=O)Nc2ccc(I)cc2)C2CCC1C21CC1 (stereo not shown) [Compound 38, N-(4-iodophenyl) spiro[bicyclo[2.2.1]heptane-7,1′-cyclopropane]-2,3-dicarboxamide] | nM (0.95) | 1.9 | 
CC(C)C1(CC(=O)NCCO)NC(=O)N(NC(=O)Nc2ccc(Br)cc2F)C1=O (stereo not shown) [Compound 148, 2-[1-{[(4-bromo-2-fluorophenyl)carbamoyl]amino}-2,5-dioxo-4-(propan-2-yl)imidazolidin-4-yl]-N-(2-hydroxyethyl)acetamide] | nM (0.98) | 6.9 | 
CC1(CCc2ccc(F)cc2)NC(=O)N(NC(=O)Nc2ccc(Br)cc2)C1=O (stereo not shown) [Compound 82, 1-(4-bromophenyl)-3-{4-[2-(4-fluorophenyl)ethyl]-4-methyl-2,5-dioxoimidazolidin-1-yl}urea] | nM (1.0) | 16.3 | 
